Reference: ChEMBL document CHEMBL2440076, “New triarylpyrazoles as broad-spectrum anticancer agents: design, synthesis, and biological evaluation” (Eur J Med Chem, 2013)

What was measured:
SK-OV-3 = experiment: Growth inhibition of human SKOV3 cells assessed as cell growth at 10 uM after 48 hrs by sulforhodamine B assay; type: functional; settings: SK-OV-3, 48 h, read-out: Activity
HCT-116 = experiment: Growth inhibition of human HCT116 cells assessed as cell growth at 10 uM after 48 hrs by sulforhodamine B assay; type: functional; settings: HCT-116, 48 h, read-out: Activity
T47D = experiment: Growth inhibition of human T47D cells after 48 hrs by sulforhodamine B assay; type: functional
SW-620 = experiment: Growth inhibition of human SW620 cells after 48 hrs by sulforhodamine B assay; type: functional; settings: SW-620, 48 h
786-0 = experiment: Growth inhibition of human 786-0 cells assessed as cell growth at 10 uM after 48 hrs by sulforhodamine B assay; type: functional; settings: 786-0, 48 h, read-out: Activity
HT-29 [1] = experiment: Growth inhibition of human HT-29 cells assessed as cell growth at 10 uM after 48 hrs by sulforhodamine B assay; type: functional; settings: HT-29, 48 h, read-out: Activity
[2] = Growth inhibition of human NCI-ADR-RES cells after 48 hrs by sulforhodamine B assay; type: functional
U-251 [3] = experiment: Growth inhibition of human U251 cells after 48 hrs by sulforhodamine B assay; type: functional; settings: U-251, 48 h
SF-539 = experiment: Growth inhibition of human SF539 cells after 48 hrs by sulforhodamine B assay; type: functional; settings: SF-539, 48 h
UACC-257 = experiment: Growth inhibition of human UACC257 cells assessed as cell growth at 10 uM after 48 hrs by sulforhodamine B assay; type: functional; settings: UACC-257, 48 h, read-out: Activity
SNB-19 = experiment: Growth inhibition of human SNB19 cells assessed as cell growth at 10 uM after 48 hrs by sulforhodamine B assay; type: functional; settings: SNB-19, 48 h, read-out: Activity
NCI-H23 = experiment: Growth inhibition of human NCI-H23 cells assessed as cell growth at 10 uM after 48 hrs by sulforhodamine B assay; type: functional; settings: NCI-H23, 48 h, read-out: Activity
NCI-H460 = experiment: Growth inhibition of human NCI-H460 cells after 48 hrs by sulforhodamine B assay; type: functional; settings: NCI-H460, 48 h
A498 = experiment: Growth inhibition of human A498 cells after 48 hrs by sulforhodamine B assay; type: functional, cell-based; settings: A498, 48 h
NCI-H226 [4] = experiment: Growth inhibition of human NCI-H226 cells after 48 hrs by sulforhodamine B assay; type: functional; settings: NCI-H226, 48 h
NCI-H226 [5] = experiment: Growth inhibition of human NCI-H226 cells assessed as cell growth at 10 uM after 48 hrs by sulforhodamine B assay; type: functional; settings: NCI-H226, 48 h, read-out: Activity
A549 [6] = experiment: Growth inhibition of human A549/ATCC cells after 48 hrs by sulforhodamine B assay; type: functional; settings: A549, 48 h
HT-29 [7] = experiment: Growth inhibition of human HT-29 cells after 48 hrs by sulforhodamine B assay; type: functional; settings: HT-29, 48 h
HL-60(TB) = experiment: Growth inhibition of human HL-60(TB) cells assessed as cell growth at 10 uM after 48 hrs by sulforhodamine B assay; type: functional; settings: HL-60, 48 h, read-out: Activity
MCF7 = experiment: Growth inhibition of human MCF7 cells after 48 hrs by sulforhodamine B assay; type: functional; settings: MCF7, 48 h
MDA-MB-468 = experiment: Growth inhibition of human MDA-MB-468 cells after 48 hrs by sulforhodamine B assay; type: functional, cell-based; settings: MDA-MB-468, 48 h
PC-3 = experiment: Growth inhibition of human PC3 cells assessed as cell growth at 10 uM after 48 hrs by sulforhodamine B assay; type: functional; settings: PC-3, 48 h, read-out: Activity
ACHN = experiment: Growth inhibition of human ACHN cells after 48 hrs by sulforhodamine B assay; type: functional
OVCAR-3 = experiment: Growth inhibition of human OVCAR3 cells after 48 hrs by sulforhodamine B assay; type: functional, cell-based; settings: OVCAR-3, 48 h
[8] = Growth inhibition of human HCC2998 cells after 48 hrs by sulforhodamine B assay; type: functional; settings: HCC 2998, 48 h
U-251 [9] = experiment: Growth inhibition of human U251 cells assessed as cell growth at 10 uM after 48 hrs by sulforhodamine B assay; type: functional; settings: U-251, 48 h, read-out: Activity
A549 [10] = experiment: Growth inhibition of human A549/ATCC cells assessed as cell growth at 10 uM after 48 hrs by sulforhodamine B assay; type: functional; settings: A549, 48 h, read-out: Activity
HOP-62 = experiment: Growth inhibition of human HOP62 cells assessed as cell growth at 10 uM after 48 hrs by sulforhodamine B assay; type: functional; settings: HOP-62, 48 h, read-out: Activity
SNB-75 = experiment: Growth inhibition of human SNB75 cells after 48 hrs by sulforhodamine B assay; type: functional; settings: SNB-75, 48 h
IGROV-1 = experiment: Growth inhibition of human IGROV1 cells after 48 hrs by sulforhodamine B assay; type: functional; settings: IGROV-1, 48 h
SK-MEL-28 = experiment: Growth inhibition of human SK-MEL-28 cells assessed as cell growth at 10 uM after 48 hrs by sulforhodamine B assay; type: functional; settings: SK-MEL-28, 48 h, read-out: Activity
HOP-92 = experiment: Growth inhibition of human HOP92 cells after 48 hrs by sulforhodamine B assay; type: functional, cell-based; settings: HOP-92, 48 h
SF-295 = experiment: Growth inhibition of human SF295 cells after 48 hrs by sulforhodamine B assay; type: functional, cell-based; settings: SF-295, 48 h
[11] = read-out: LC50 (the source's name)

With `O=C(Nc1cccc(-n2cc(-c3ccncc3)c(-c3ccc(Cl)c(O)c3)n2)c1)Nc1cccc(C(F)(F)F)c1` the growth at 10 µM (SK-OV-3) was 21.2%, the growth at 10 µM (HCT-116) was 9.75% and the GI50 (T47D) was 2.47 µM. For the same molecule, the TGI (T47D) was > 32.5 µM, the CC50 (T47D; [11]) was > 32.5 µM and the GI50 (SW-620) was 3.83 µM. For the same molecule, the TGI (SW-620) was > 32.5 µM, the CC50 (SW-620; [11]) was > 32.5 µM and the growth at 10 µM (786-0) was 34.4%. The growth at 10 µM (HT-29 [1]) was 77.8%, the GI50 [2] was 2.14 µM and the TGI [2] was > 32.5 µM. For the same molecule, the CC50 [2, 11] was > 32.5 µM, the GI50 (U-251 [3]) was 1.59 µM and the LC50 (concentration killing 50% of cells) (U-251 [3]) was > 32.5 µM. For the same molecule, the TGI (U-251 [3]) was 7.65 µM, the GI50 (SF-539) was 3.54 µM and the LC50 (concentration killing 50% of cells) (SF-539) was > 32.5 µM. It also gave a TGI (SF-539) of 11.6 µM, a growth at 10 µM (UACC-257) of -11.6% and a growth at 10 µM (SNB-19) of 32.5%. The growth at 10 µM (NCI-H23) was 14.6%, the GI50 (NCI-H460) was 1.18 µM and the LC50 (NCI-H460) was > 32.5 µM. The TGI (NCI-H460) was 29 µM, the GI50 (A498) was 2.24 µM and the IC50 (A498) was 2.24 µM. The TGI (A498) was > 32.5 µM, the CC50 (A498; [11]) was > 32.5 µM and the GI50 (NCI-H226 [4]) was 7.35 µM. The TGI (NCI-H226 [4]) was > 32.5 µM, the CC50 (NCI-H226 [4]; [11]) was > 32.5 µM and the growth at 10 µM (NCI-H226 [5]) was 35.1%. The GI50 (A549 [6]) was 1.37 µM, the LC50 (concentration killing 50% of starting cells) (A549 [6]) was > 32.5 µM and the TGI (A549 [6]) was > 32.5 µM. For the same molecule, the GI50 (HT-29 [7]) was 9.82 µM, the TGI (HT-29 [7]) was > 32.5 µM and the CC50 (HT-29 [7]; [11]) was > 32.5 µM. The growth at 10 µM (HL-60(TB)) was 12.5%, the GI50 (MCF7) was 1.34 µM and the LC50 (MCF7) was > 32.5 µM. For the same molecule, the TGI (MCF7) was > 32.5 µM, the GI50 (MDA-MB-468) was 0.98 µM and the IC50 (MDA-MB-468) was 0.98 µM. The TGI (MDA-MB-468) was 7.83 µM, the CC50 (MDA-MB-468; [11]) was > 32.5 µM and the growth at 10 µM (PC-3) was 4.28%. The GI50 (ACHN) was 1.29 µM, the TGI (ACHN) was > 32.5 µM and the CC50 (ACHN; [11]) was > 32.5 µM. For the same molecule, the GI50 (OVCAR-3) was 1.06 µM, the IC50 (OVCAR-3) was 1.06 µM and the TGI (OVCAR-3) was 6.13 µM. The CC50 (OVCAR-3; [11]) was > 32.5 µM, the GI50 [8] was 7.26 µM and the TGI [8] was > 32.5 µM. For the same molecule, the CC50 [8, 11] was > 32.5 µM, the growth at 10 µM (U-251 [9]) was 15.8% and the growth at 10 µM (A549 [10]) was 5.74%. For the same molecule, the growth at 10 µM (HOP-62) was 38.1%, the GI50 (SNB-75) was 3.65 µM and the LC50 (lethal concentration, 50% net cell kill) (SNB-75) was > 32.5 µM. The TGI (SNB-75) was > 32.5 µM, the GI50 (IGROV-1) was 1.64 µM and the LC50 (concentration killing 50% of cells) (IGROV-1) was > 32.5 µM. The TGI (IGROV-1) was > 32.5 µM, the growth at 10 µM (SK-MEL-28) was 29.4% and the GI50 (HOP-92) was 0.509 µM. The IC50 (HOP-92) was 0.51 µM, the LC50 (HOP-92) was > 32.5 µM and the TGI (HOP-92) was 2.23 µM. The GI50 (SF-295) was 0.962 µM, the IC50 (SF-295) was 0.96 µM and the TGI (SF-295) was 4.26 µM. It also gave a CC50 (SF-295; [11]) of 29.2 µM.
